The values that follow are results of earlier work, collected in US20040053391A1, “Renal cell carcinoma-antigen G250-derived peptides that elicit both CD4+ and CD8+ T-cell responses” (Katholieke Universiteit Nijmegen, priority 2002, published 2004).

This data set relates to CD8+CTL's. The conditions noted are these: HLA-A2.1; Vissers et al. 1999, WO 01/98363.

For the substance “G250 amino acid sequence from 254 to 262: previously identified HLA-A2.1-restricted CTL epitope of G250, comprised within 249-268 (HLSTAFARV; UniProt Q16790 254-262, looked up, fragment)”, the CTL epitope character entry is “HLA-A2.1-restricted CTL epitope that is both naturally processed and immunogenic”.
